Reference: article PMC12035797, “Peptidomimetics Activating the Proteasome: A New Perspective for Parkinson’s Treatment” (Journal of Medicinal Chemistry, 2025)
Entries after “also recorded” stand apart in the source; their conditions may differ.

Columns and labels:
[1] = test system: endogenous α-synuclein in primary cortical cultures; assay: Endogenous α-synuclein level in primary cortical cultures (Simple Western Jess); format: cell-based, mouse; conditions: 2.5 μM, 7 days; statistical significance only for 1g
Description: The effectiveness of the compounds has also been examined by using proteins as substrates. By means of SDS-PAGE electrophoresis, we checked the extent to which model proteins were digested by the 20S proteasome alone and after its stimulation by 10 μM modulators. […] After incubation with the enzyme in the presence of each modulator, less than 40% of synuclein remained. […] All animal experiments were performed following the protocols evaluated and approved by the Laboratory Animal Centre of the University of Helsinki (Ethics Approval License KEK24-013) and in accordance with the European Community Guidelines (Directive 2010/63/EU). […] The viability and number of neuronal cells were calculated automatically in an Automated Cell Counter (Bio-Rad), plated at a density of 1,000,000 cells per well on 6-well plates and cultured in Neurobasal A Medium (Thermo Fisher Scientific (Gibco), #12349015, Waltham, MA, USA) supplemented with GlutaMAX (Thermo Fisher Scientific (Gibco) #A1286001, Waltham, MA, USA), B-27 Supplement (Thermo Fisher Scientific (Gibco), #17504001, Waltham, MA, USA), and 200 ng/mL Primocin (Invitrogen, ant-pm-1, San Diego, CA, USA). […] Protein concentrations in the cell lysates were determined using a bicinchoninic acid (BCA) assay (Sigma-Aldrich, 3B9643-1L-KC, MO, USA) according to the manufacturer’s instructions. […]

[2] = PAMPA, blood–brain barrier mimic; format: in vitro ADME; conditions: 500 μM, 37 °C, 22 h
Excerpt: In neurodegenerative diseases, proteins prone to aggregation accumulate in the neuronal cells. Therefore, a necessary feature of potential drugs is not only permeability across the cell membrane but also the ability to cross the blood-brain barrier (BBB). To preliminarily investigate this feature, we performed parallel artificial membrane permeation assays (PAMPA) including as positive controls propranolol and Tat47-57, known for their ability to penetrate the blood-brain barrier. Dopamine hydrobromide was included as a negative control. For comparison, we also tested compound 1a, which is devoid of a CPP sequence. […] The PAMPA was performed as previously described.[21] Briefly, a 2% solution of porcine brain lipid membrane (PBL; Avanti Polar Lipids Inc., Alabaster, AL, USA) in anhydrous dodecane was used as a mimic of the blood-brain barrier. Propranolol hydrochloride (Merck, Darmstadt, Germany) and Tat47-57 (synthesized in-house) served as positive controls, while dopamine hydrobromide (Merck, Darmstadt, Germany) was used as a negative control. Stock solutions of the tested compounds and controls were prepared at a concentration of 10 mM in deionized water and then diluted to 500 μM using 0.1 M PBS containing 5% DMSO. The donor-acceptor plate assembly was incubated at 37 °C while being shaken at 250 rpm for 22 h. Absorbance at 290 nm was measured for propranolol using an Infinite […] plate reader (Infinite […] plate reader, Tecan). For the other samples, fluorescence measurements were performed after the compounds were reacted with 0.02% fluorescamine. The rate of passive diffusion was calculated as the linear velocity of permeation (Pe). The data represent an average of three independent biological replicates.

[3] = test system: hippocampal neurons containing Lewy body-like pS129-αsyn aggregates; assay: pS129-α-synuclein aggregates in PFF-treated hippocampal neurons; format: cell-based, mouse; conditions: 7 days after PFFs, 0.5 and 2.5 μM
Excerpt: Encouraged by the results received, we tested the ability of the modulator-CPP constructs to increase α-synuclein degradation in a cell model using primary mouse neuronal cells. The presence of Lewy-like neurites and Lewy-like bodies containing aggregated α-synuclein with phosphorylated serine 129 (pS129-αsyn) is a characteristic feature of the brains of people with Parkinson’s disease. To mimic these aggregations, we introduced a solution of preformed fibrils (PFFs) to the media of neuronal cells, which led to the induction of α-synuclein phosphorylation and its aggregation in neurons isolated from mouse embryos. PFFs are purified, prion-like fibrils of α-synuclein that are produced by expressing a recombinant monomeric protein in bacteria. Seven days after PFFs are introduced to the cells, large aggregates are visible in the cell soma, often next to the cell nucleus. We added the PFF solution to the hippocampal cells, and after an hour of incubation, we introduced solutions of the activator. After 7 days, we immunostained neuronal cells using a monoclonal antibody against the NeuN protein, which is commonly used in neuronal differentiation studies to assess their functional status. Additionally, we stained the nuclei of all incubated cells with DAPI. […] It is noteworthy that the number of cells in samples with activators was slightly higher (Figure 5), which may indicate neuroprotective properties. […] The main tool for monitoring this process was an antibody against pS129-αsyn. […] The fluorescent microscopy images (Figure 5) show the difference between the amounts of aggregated protein in the control sample and in the samples containing activators at different concentrations.
Cells were isolated from pregnant mouse embryos at E16.0 and plated on precoated with poly-L-lysine wells of 96-well plates (PerkinElmer/Revvity Inc., Waltham, MA, USA) at 25,000 cells/well. The final medium volume was 150 μL/well. Cells were incubated at 37 °C, 5% CO2. […]

With `C[C@@H](O)[C@H](NC(=O)[C@H](Cc1ccccc1)NC(=O)[C@H](Cc1ccc(O)cc1)NC(=O)CN(CCCCN)C(=O)[C@H](CCCNC(=N)N)NC(=O)[C@H](CCCNC(=N)N)NC(=O)[C@H](CCCNC(=N)N)NC(=O)[C@H](CCNC(=N)N)NC(=O)[C@H](CCCNC(=N)N)NC(=O)[C@@H](N)CCCNC(=N)N)C(=O)NCC(=O)N[C@@H](CO)C(=O)N[C@@H](CCCCN)C(=O)N[C@@H](CC(=O)O)C(=O)N[C@@H](Cc1c[nH]c2ccccc12)C(=O)N[C@@H](CCCNC(=N)N)C(=O)N[C@@H](CO)C(=O)N[C@@H](Cc1ccc(O)cc1)C(=O)N[C@@H](Cc1ccc(O)cc1)C(=O)N[C@@H](CO)C(=O)O` [1g] the “effect on endogenous α-synuclein in primary cortical cultures” value [1] was “able to reduce the amount of endogenous α-synuclein”, the “permeability across artificial BBB membrane, PAMPA” value [2] was “had the ability to penetrate the artificial membrane mimicking the BBB” and the “effect on hippocampal cells containing α-synuclein aggregates” value [3] was “effectively reduced the number of hippocampal cells containing α-synuclein; also recorded: visible dependence of the degradation ability on concentration”.
